From US20120219615A1, “Therapeutic Use of a TLR Agonist and Combination Therapy” (The Trustees of the University of Pennsylvania, priority 2010, published 2012)

System: OVCAR5 cells
Test: OVCAR5 apoptosis by annexin-V and 7AAD staining
Assay type: cell-based, human
Description: Cell viability Annexin V/7AAD: To detect apoptosis, tumor cells were stained with annexin V/7AAD (BD Pharmingen #559763). Apoptotic cells were analyzed by flow cytometry according to the manufacturer's protocol. Briefly, OVCAR5 cells grown and subjected to different treatments were collected and pelleted at 1200 rpm and then washed twice with ice-cold PBS and re-suspended in a binding buffer (Pharmingen #51-66121 E) at a concentration of 1×10^6 cells/mL; 100 μL of the solution (1×10^5 cells) was transferred to each of two 5-mL culture tubes. Five μL of annexin V-PE (Pharmingen #51-65875Y) and added to each 100 μL solution, gently vortexed, incubated for 15 min at room temperature in the dark, washed with PBS, incubated with 5 μL of 7AAD (BD Pharmingen #51-68981E) for 10 minutes, and analyzed by FACS within 1 h.
Besides tumor-specific CTLs, TLR8 activation may also invoke innate anti-tumor responses, including the release of soluble mediators such as members of the TNF family, which can act directly on tumor cells to induce apoptosis. […] Expression of the TNFα receptor 1 (TNFR1) in OVCAR5 cells was tested and documented by Western blot (FIG. 5C). During the sensitivity test of OVCAR5 cells to TNFα, cells were incubated for 24 hours with 20 ng/ml of TNFα, a dose that exerts direct cytotoxic effects. […]

Substance: TNFα
- TNFα-mediated apoptosis of OVCAR5 cells (20 ng/ml TNFα, 24 hours): resistant to TNFα-mediated apoptosis
- apoptosis of OVCAR5 cells (PLD 1 μg/mL 24 h pre-incubation, then TNFα 20 ng/ml 12 h, or control media): minimal apoptosis
